The results in this text go back to ChEMBL document CHEMBL5357061, “Enhanced Inhibition of Cancer Cell Migration by a Planar Catechin Analog” (ACS Med Chem Lett, 2024).

For one test, the system named is RGK1. The experiment in a line: Inhibition of cell migration in rat RGK1 cells assessed as reduction in healing of scratched areas at 200 uM measured after 12 hrs by scratch-wound healing assay. It counts as functional, cell-based.
The test system of another test is RGM1. The experiment in a line: Inhibition of cell migration in rat RGM1 cells assessed as reduction in healing of scratched areas at 200 uM measured after 12 hrs by scratch-wound healing assay. The format is functional, cell-based.

The source made the active and inactive calls. The rule behind the calls is not given here.

`CC1(C)O[C@H]2Cc3c(O)cc(O)cc3O[C@@H]2c2cc(O)c(O)cc21`: the inhibition entry in the test on RGK1 and with RGM1 was “Active” each time.

For the compound `Oc1cc(O)c2c(c1)O[C@H](c1ccc(O)c(O)c1)[C@@H](O)C2`, the inhibition entry in the test with RGK1 and with RGM1 was “inactive” each time.
